Data taken from article PMC12102759 (Protein Science : A Publication of the Protein Society, 2025).
Where two headings read alike, the source gives them in different places.

Tested on: PABPC1 PABC
Assay type: binding, human
Conditions: DMS-BM library, bait PABPC1 PABC, row aa = residue at this position; for DMS-derived PSSM value, position R14 / DMS-derived PSSM value, position R12: R = wild type
[1] = prey ATXN2, peptide TLNPNAKEFNPRSFSQ, A = wild type
[2] = prey ATXN2, peptide TLNPNAKEFNPRSFSQ, N = wild type
[3] = prey ATXN2, peptide TLNPNAKEFNPRSFSQ, P = wild type
[4] = prey ATXN2, peptide TLNPNAKEFNPRSFSQ, E = wild type
[5] = prey ATXN2, peptide KSTLNPNAKEFNPRSF, N = wild type
[6] = prey ATXN2, TLNPNAKEFNPRSF(averaged) over the two overlapping peptides, N = wild type
[7] = prey ATXN2, peptide KSTLNPNAKEFNPRSF, K = wild type
[8] = prey ATXN2, peptide TLNPNAKEFNPRSFSQ, S = wild type
[9] = prey ATXN2, peptide TLNPNAKEFNPRSFSQ, T = wild type
[10] = prey ATXN2, peptide KSTLNPNAKEFNPRSF, S = wild type
[11] = prey ATXN2, peptide TLNPNAKEFNPRSFSQ, F = wild type
[12] = prey ATXN2, peptide KSTLNPNAKEFNPRSF, P = wild type
[13] = prey ATXN2, peptide KSTLNPNAKEFNPRSF
[14] = prey ATXN2, peptide TLNPNAKEFNPRSFSQ
[15] = prey ATXN2, peptide TLNPNAKEFNPRSFSQ, K = wild type

TLNPNAKEFNPRSFSQ A6R (TLNPNRKEFNPRSFSQ)
DMS-derived PSSM value, position A6 [1]: 0

TLNPNAKEFNPRSFSQ N10T (TLNPNAKEFTPRSFSQ)
DMS-derived PSSM value, position N10 [2]: 0.03853

TLNPNAKEFNPRSFSQ P11W (TLNPNAKEFNWRSFSQ)
DMS-derived PSSM value, position P11 [3]: 0.02291

TLNPNAKEFNPRSFSQ E8D (TLNPNAKDFNPRSFSQ)
DMS-derived PSSM value, position E8 [4]: 0

KSTLNPNAKEFNPRSF N12R (KSTLNPNAKEFRPRSF)
DMS-derived PSSM value, position N12 [5]: 0.008293

TLNPNAKEFNPRSF(averaged) N5Y (TLNPYAKEFNPRSF)
DMS-derived PSSM value (averaged), position N5 [6]: 0.004226

KSTLNPNAKEFNPRSF K9I (KSTLNPNAIEFNPRSF)
DMS-derived PSSM value, position K9 [7]: 0.4039

TLNPNAKEFNPRSFSQ S13F (TLNPNAKEFNPRFFSQ)
DMS-derived PSSM value, position S13 [8]: 0.004247

TLNPNAKEFNPRSF(averaged) N10A (TLNPNAKEFAPRSF)
DMS-derived PSSM value (averaged), position N10 [6]: 0.08276

TLNPNAKEFNPRSFSQ S13A (TLNPNAKEFNPRAFSQ)
DMS-derived PSSM value, position S13 [8]: 0.2244

TLNPNAKEFNPRSFSQ T1E (ELNPNAKEFNPRSFSQ)
DMS-derived PSSM value, position T1 [9]: 0.003724

TLNPNAKEFNPRSFSQ S13L (TLNPNAKEFNPRLFSQ)
DMS-derived PSSM value, position S13 [8]: 0.06939

TLNPNAKEFNPRSFSQ T1I (ILNPNAKEFNPRSFSQ)
DMS-derived PSSM value, position T1 [9]: 0.00436

KSTLNPNAKEFNPRSF S15F (KSTLNPNAKEFNPRFF)
DMS-derived PSSM value, position S15 [10]: 0.0234

TLNPNAKEFNPRSF(averaged) S13N (TLNPNAKEFNPRNF)
DMS-derived PSSM value (averaged), position S13 (prey ATXN2, TLNPNAKEFNPRSF(averaged) over the two overlapping peptides, S = wild type): 0.08567

TLNPNAKEFNPRSFSQ F14S (TLNPNAKEFNPRSSSQ)
DMS-derived PSSM value, position F14 [11]: 0.004424

TLNPNAKEFNPRSFSQ F9Y (TLNPNAKEYNPRSFSQ)
DMS-derived PSSM value, position F9 [11]: 0.02013

TLNPNAKEFNPRSFSQ N3F (TLFPNAKEFNPRSFSQ)
DMS-derived PSSM value, position N3 [2]: 0

KSTLNPNAKEFNPRSF P13I (KSTLNPNAKEFNIRSF)
DMS-derived PSSM value, position P13 [12]: 0.01276

TLNPNAKEFNPRSF(averaged) P4I (TLNINAKEFNPRSF)
DMS-derived PSSM value (averaged), position P4 (prey ATXN2, TLNPNAKEFNPRSF(averaged) over the two overlapping peptides, P = wild type): 0.2825

TLNPNAKEFNPRSFSQ N10M (TLNPNAKEFMPRSFSQ)
DMS-derived PSSM value, position N10 [2]: 0.1

TLNPNAKEFNPRSFSQ S15I (TLNPNAKEFNPRSFIQ)
DMS-derived PSSM value, position S15 [8]: 0.0111

KSTLNPNAKEFNPRSF N12Q (KSTLNPNAKEFQPRSF)
DMS-derived PSSM value, position N12 [5]: 0.02863

KSTLNPNAKEFNPRSF A8P (KSTLNPNPKEFNPRSF)
DMS-derived PSSM value, position A8 (prey ATXN2, peptide KSTLNPNAKEFNPRSF, A = wild type): 0

TLNPNAKEFNPRSF(averaged) K7V (TLNPNAVEFNPRSF)
DMS-derived PSSM value (averaged), position K7 (prey ATXN2, TLNPNAKEFNPRSF(averaged) over the two overlapping peptides, K = wild type): 0.003972

KSTLNPNAKEFNPRSF R14H (KSTLNPNAKEFNPHSF)
DMS-derived PSSM value, position R14 [13]: 0.02913

KSTLNPNAKEFNPRSF K9N (KSTLNPNANEFNPRSF)
DMS-derived PSSM value, position K9 [7]: 0.1194

TLNPNAKEFNPRSFSQ S13K (TLNPNAKEFNPRKFSQ)
DMS-derived PSSM value, position S13 [8]: 0.007933

KSTLNPNAKEFNPRSF S2N (KNTLNPNAKEFNPRSF)
DMS-derived PSSM value, position S2 [10]: 0

KSTLNPNAKEFNPRSF N5I (KSTLIPNAKEFNPRSF)
DMS-derived PSSM value, position N5 [5]: 0

KSTLNPNAKEFNPRSF P13Y (KSTLNPNAKEFNYRSF)
DMS-derived PSSM value, position P13 [12]: 0.004042

TLNPNAKEFNPRSFSQ N10G (TLNPNAKEFGPRSFSQ)
DMS-derived PSSM value, position N10 [2]: 0.01946

TLNPNAKEFNPRSFSQ F14A (TLNPNAKEFNPRSASQ)
DMS-derived PSSM value, position F14 [11]: 0.01754

KSTLNPNAKEFNPRSF K9H (KSTLNPNAHEFNPRSF)
DMS-derived PSSM value, position K9 [7]: 0.04428

KSTLNPNAKEFNPRSF L4M (KSTMNPNAKEFNPRSF)
DMS-derived PSSM value, position L4 (prey ATXN2, peptide KSTLNPNAKEFNPRSF, L = wild type): 0.3054

TLNPNAKEFNPRSFSQ F14K (TLNPNAKEFNPRSKSQ)
DMS-derived PSSM value, position F14 [11]: 0.003921

KSTLNPNAKEFNPRSF R14Y (KSTLNPNAKEFNPYSF)
DMS-derived PSSM value, position R14 [13]: 0.04467

TLNPNAKEFNPRSFSQ N3H (TLHPNAKEFNPRSFSQ)
DMS-derived PSSM value, position N3 [2]: 0

KSTLNPNAKEFNPRSF T3L (KSLLNPNAKEFNPRSF)
DMS-derived PSSM value, position T3 (prey ATXN2, peptide KSTLNPNAKEFNPRSF, T = wild type): 0.01491

TLNPNAKEFNPRSF(averaged) A6S (TLNPNSKEFNPRSF)
DMS-derived PSSM value (averaged), position A6 (prey ATXN2, TLNPNAKEFNPRSF(averaged) over the two overlapping peptides, A = wild type): 0.04153

TLNPNAKEFNPRSF(averaged) N10I (TLNPNAKEFIPRSF)
DMS-derived PSSM value (averaged), position N10 [6]: 0.01803

TLNPNAKEFNPRSFSQ R12I (TLNPNAKEFNPISFSQ)
DMS-derived PSSM value, position R12 [14]: 0.04014

KSTLNPNAKEFNPRSF N7A (KSTLNPAAKEFNPRSF)
DMS-derived PSSM value, position N7 [5]: 0.01018

TLNPNAKEFNPRSFSQ N5D (TLNPDAKEFNPRSFSQ)
DMS-derived PSSM value, position N5 [2]: 0.00392

TLNPNAKEFNPRSF(averaged) E8M (TLNPNAKMFNPRSF)
DMS-derived PSSM value (averaged), position E8 (prey ATXN2, TLNPNAKEFNPRSF(averaged) over the two overlapping peptides, E = wild type): 0.02105

KSTLNPNAKEFNPRSF K9G (KSTLNPNAGEFNPRSF)
DMS-derived PSSM value, position K9 [7]: 0.006369

TLNPNAKEFNPRSFSQ F9Q (TLNPNAKEQNPRSFSQ)
DMS-derived PSSM value, position F9 [11]: 0

KSTLNPNAKEFNPRSF S15R (KSTLNPNAKEFNPRRF)
DMS-derived PSSM value, position S15 [10]: 0.007958

TLNPNAKEFNPRSFSQ
DMS-derived PSSM value, position A6 [1]: 0.3958 | DMS-derived PSSM value, position E8 [4]: 0.1068 | DMS-derived PSSM value, position F9 [11]: 0.2105 | DMS-derived PSSM value, position F14 [11]: 0.06109 | DMS-derived PSSM value, position K7 [15]: 0.0126 | DMS-derived PSSM value, position L2 (prey ATXN2, peptide TLNPNAKEFNPRSFSQ, L = wild type): 0.3849 | DMS-derived PSSM value, position N3 [2]: 0.2805 | DMS-derived PSSM value, position N5 [2]: 0.009358 | DMS-derived PSSM value, position N10 [2]: 0.0868 | DMS-derived PSSM value, position P4 [3]: 0.1257 | DMS-derived PSSM value, position P11 [3]: 0.07425 | DMS-derived PSSM value, position R12 [14]: 0.03868 | DMS-derived PSSM value, position S13 [8]: 0.06246 | DMS-derived PSSM value, position S15 [8]: 0.03177 | DMS-derived PSSM value, position T1 [9]: 0.03795

TLNPNAKEFNPRSFSQ T1Q (QLNPNAKEFNPRSFSQ)
DMS-derived PSSM value, position T1 [9]: 0.00769

KSTLNPNAKEFNPRSF P6A (KSTLNANAKEFNPRSF)
DMS-derived PSSM value, position P6 [12]: 0

KSTLNPNAKEFNPRSF N7Y (KSTLNPYAKEFNPRSF)
DMS-derived PSSM value, position N7 [5]: 0.00548

TLNPNAKEFNPRSFSQ R12V (TLNPNAKEFNPVSFSQ)
DMS-derived PSSM value, position R12 [14]: 0.1384

KSTLNPNAKEFNPRSF F11R (KSTLNPNAKERNPRSF)
DMS-derived PSSM value, position F11 (prey ATXN2, peptide KSTLNPNAKEFNPRSF, F = wild type): 0

TLNPNAKEFNPRSFSQ K7G (TLNPNAGEFNPRSFSQ)
DMS-derived PSSM value, position K7 [15]: 0.01102
